Results taken from patent publication US10611740B2, “Aryl dihydro-2H-benzo[b][1,4]oxazine sulfonamide and related compounds for use as agonists of RORγ and the treatment of disease” (Lycera Corporation, priority 2015, dated 2020).

Legend:
RORγ-LBD = target: T1, RORγ-LBD (Homo sapiens, UniProt P51449); assay: RORγ-Ligand Binding Domain (LBD) TR-FRET Assay; format: biochemical;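 for TR-FRET Assay Max Response: 665/615 nm ratio relative to signal without ursolic acid or compound set at 100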
T1 construct: made in house; host or cells: SF9 cells (baculovirus)
T1 sequence (P51449 269-508 limits assumed): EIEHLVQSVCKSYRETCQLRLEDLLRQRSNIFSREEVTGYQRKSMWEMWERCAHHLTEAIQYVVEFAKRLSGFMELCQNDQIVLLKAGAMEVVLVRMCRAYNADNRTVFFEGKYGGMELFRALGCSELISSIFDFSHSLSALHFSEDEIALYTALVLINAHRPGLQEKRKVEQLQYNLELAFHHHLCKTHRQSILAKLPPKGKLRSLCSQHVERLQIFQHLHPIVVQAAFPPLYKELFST
Summary of the method: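 This TR-FRET coactivator assay pairs baculovirus-expressed His-RORγ-LBD (~3 nM final) with biotin-SRC1 LXXLL peptide at 200 nM final in pH 7.0 Tris/KCl/EDTA/DTT/BSA buffer.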

Gal4-RORγ-LBD = target: T2, Gal4-RORγ-LBD (Homo sapiens, UniProt P51449); assay: Gal4-RORγ Luciferase Reporter Assay in HEK-293T Cells; format: cell-based; conditions: HEK-293 cells
T2 construct: expressed in transfected cells; host or cells: HEK-293 cells (pcDNA3.1neo plasmid)
T2 sequence (P51449 269-508 limits assumed): T1 sequence (P51449 269-508 limits assumed)
Summary of the method: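 Luminescence read-out (One-Glo, 10 min RT) after overnight compound exposure at 37 °C in HEK-293 cells carrying Gal4-RORγ-LBD plus a Gal4-luciferase reporter, in the presence of 2 μM ursolic acid. Max Response is the upper plateau from a 4-parameter logistic fit, normalized to untreated signal = 100.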

[1] = luciferase reporter, with 2 μM ursolic acid

Structure (SMILES) | EC50 (RORγ-LBD) | TR-FRET Assay Max Response (RORγ-LBD) | EC50 (Gal4-RORγ-LBD; [1]) | Gal4-RORγ Assay Max Response (Gal4-RORγ-LBD; [1]) | EC50 (Gal4-RORγ-LBD; 2 μM ursolic acid) | Gal4-RORγ Assay Max Response (Gal4-RORγ-LBD; 2 μM ursolic acid)
C[C@H](C[C@H]1CN(S(=O)(=O)c2cccc(C(F)(F)F)c2)c2cc(-c3cc(F)cc(F)c3Cl)ccc2O1)C(=O)O [Compound 46B, (R)-3-((S)-6-(2-chloro-3,5-difluorophenyl)-4-((3-(trifluoro-methyl)phenyl)sulfonyl)-3,4-dihydro-2H-benzo[b][1,4]oxazin-2-yl)-2-methylpropanoic acid] | < 0.5 µM | *** (The symbol “***” indicates a value in the range of greater than 150 to 200) | < 0.5 µM | ** (The symbol “**” indicates a value in the range of greater than 90 to 150) | – | –
C[C@@H](C[C@H]1CN(S(=O)(=O)c2cccc(C(F)(F)F)c2)c2cc(-c3cc(F)cc(F)c3Cl)ccc2O1)C(=O)O [Compound 46C, (S)-3-((S)-6-(2-chloro-3,5-difluorophenyl)-4-((3-(trifluoro-methyl)phenyl)sulfonyl)-3,4-dihydro-2H-benzo[b][1,4]oxazin-2-yl)-2-methylpropanoic acid] | < 0.5 µM | *** (The symbol “***” indicates a value in the range of greater than 150 to 200) | < 0.5 µM | ** (The symbol “**” indicates a value in the range of greater than 90 to 150) | – | –
C[C@H](C[C@H]1CN(S(=O)(=O)c2cccc(C(F)(F)F)c2)c2cc(-c3cccc(Cl)c3F)ccc2O1)C(=O)O [Compound 46D, (R)-3-((S)-6-(3-chloro-2-fluoro-phenyl)-4-((3-(trifluoromethyl)-phenyl)sulfonyl)-3,4-dihydro-2H-benzo[b][1,4]oxazin-2-yl)-2-methylpropanoic acid] | < 0.5 µM | *** (The symbol “***” indicates a value in the range of greater than 150 to 200) | – | – | < 0.5 µM | ** (The symbol “**” indicates a value in the range of greater than 90 to 150)
C[C@@H](C[C@H]1CN(S(=O)(=O)c2cccc(C(F)(F)F)c2)c2cc(-c3cccc(Cl)c3F)ccc2O1)C(=O)O [Compound 46E, (S)-3-((S)-6-(3-chloro-2-fluoro-phenyl)-4-((3-(trifluoromethyl)-phenyl)sulfonyl)-3,4-dihydro-2H-benzo[b][1,4]oxazin-2-yl)-2-methylpropanoic acid] | < 0.5 µM | ** (The symbol “**” indicates a value in the range of greater than 90 to 150) | – | – | 0.5 to 5 µM | * (The symbol “*” indicates a value in the range of 25 to 90)
CC[C@H](C[C@H]1CN(S(=O)(=O)c2cccc(C(F)(F)F)c2)c2cc(-c3cc(F)cc(F)c3Cl)ccc2O1)C(=O)O [Compound 46F, (R)-2-(((S)-6-(2-chloro-3,5-difluorophenyl)-4-((3-(trifluoro-methyl)phenyl)sulfonyl)-3,4-dihydro-2H-benzo[b][1,4]oxazin-2-yl)methyl)butanoic acid] | < 0.5 µM | *** (The symbol “***” indicates a value in the range of greater than 150 to 200) | – | – | 0.5 to 5 µM | * (The symbol “*” indicates a value in the range of 25 to 90)
CC[C@@H](C[C@H]1CN(S(=O)(=O)c2cccc(C(F)(F)F)c2)c2cc(-c3cc(F)cc(F)c3Cl)ccc2O1)C(=O)O [Compound 46G, (S)-2-(((S)-6-(2-chloro-3,5-difluorophenyl)-4-((3-(trifluoro-methyl)phenyl)sulfonyl)-3,4-dihydro-2H-benzo[b][1,4]oxazin-2-yl)methyl)butanoic acid] | < 0.5 µM | ** (The symbol “**” indicates a value in the range of greater than 90 to 150) | – | – | < 0.5 µM | ** (The symbol “**” indicates a value in the range of greater than 90 to 150)
O=S(=O)(c1cccc(C(F)(F)F)c1)N1C[C@H](CC2(CO)COC2)Oc2ccc(-c3cc(F)cc(OC(F)F)c3)cc21 [Compound 49, (S)-(3-((6-(3-(difluoromethoxy)-5-fluorophenyl)-4-((3-(trifluoromethyl)phenyl)sulfonyl)-3,4-dihydro-2H-benzo[b][1,4]oxazin-2-yl)methyl)oxetan-3-yl)methanol] | < 0.5 µM | ** (The symbol “**” indicates a value in the range of greater than 90 to 150) | – | – | < 0.5 µM | ** (The symbol “**” indicates a value in the range of greater than 90 to 150)
O=S(=O)(c1cccc(C(F)(F)F)c1)N1C[C@H](CC2(CO)COC2)Oc2ccc(-c3cc(F)cc(F)c3Cl)cc21 [Compound 51A, (S)-(3-((6-(2-chloro-3,5-difluoro-phenyl)-4-((3-(trifluoromethyl)-phenyl)sulfonyl)-3,4-dihydro-2H-benzo[b][1,4]oxazin-2-yl)methyl)oxetan-3-yl)methanol] | < 0.5 µM | ** (The symbol “**” indicates a value in the range of greater than 90 to 150) | – | – | < 0.5 µM | ** (The symbol “**” indicates a value in the range of greater than 90 to 150)
O=C(O)C1(C[C@H]2CN(S(=O)(=O)c3cccc(C(F)(F)F)c3)c3cc(-c4cc(F)cc(F)c4Cl)ccc3O2)COC1 [Compound 51B, (S)-3-((6-(2-chloro-3,5-difluoro-phenyl)-4-((3-(trifluoromethyl)-phenyl)sulfonyl)-3,4-dihydro-2H-benzo[b][1,4]oxazin-2-yl)methyl)oxetane-3-carboxylic acid] | < 0.5 µM | *** (The symbol “***” indicates a value in the range of greater than 150 to 200) | – | – | < 0.5 µM | ** (The symbol “**” indicates a value in the range of greater than 90 to 150)
COc1cc(F)cc(-c2ccc3c(c2)N(S(=O)(=O)c2cccc(C(F)(F)F)c2)C[C@H](CC2(C(=O)O)COC2)O3)c1F [Compound 51C, (S)-3-((6-(2,5-difluoro-3-methoxyphenyl)-4-((3-(trifluoromethyl)phenyl)sulfonyl)-3,4-dihydro-2H-benzo[b][1,4]oxazin-2-yl)methyl)oxetane-3-carboxylic acid] | < 0.5 µM | ** (The symbol “**” indicates a value in the range of greater than 90 to 150) | – | – | < 0.5 µM | ** (The symbol “**” indicates a value in the range of greater than 90 to 150)
O=C(O)C1(C[C@H]2CN(S(=O)(=O)c3cccc(C4CC4)c3)c3cc(-c4cc(F)ccc4F)ccc3O2)COC1 [Compound 51E, (S)-3-((4-((3-cyclopropylphenyl)sulfonyl)-6-(2,5-difluorophenyl)-3,4-dihydro-2H-benzo[b][1,4]oxazin-2-yl)methyl)oxetane-3-carboxylic acid] | < 0.5 µM | *** (The symbol “***” indicates a value in the range of greater than 150 to 200) | – | – | > 10 µM | *** (The symbol “***” indicates a value in the range of greater than 150 to 200)
O=C(O)C1(C[C@H]2CN(S(=O)(=O)c3cccc(C4CC4)c3)c3cc(-c4cc(F)cc(OC(F)F)c4)ccc3O2)COC1 [Compound 51F, (S)-3-((4-((3-cyclopropyl-phenyl)sulfonyl)-6-(3-(difluoro-methoxy)-5-fluorophenyl)-3,4-dihydro-2H-benzo[b][1,4]oxazin-2-yl)methyl)oxetane-3-carboxylic acid] | < 0.5 µM | *** (The symbol “***” indicates a value in the range of greater than 150 to 200) | – | – | < 0.5 µM | ** (The symbol “**” indicates a value in the range of greater than 90 to 150)
CC(=O)NC1(C[C@H]2CN(S(=O)(=O)c3cccc(C(F)(F)F)c3)c3cc(-c4cccc(C(F)(F)F)n4)ccc3O2)COC1 [Compound 51M, (S)-N-(3-((4-((3-(trifluoromethyl)-phenyl)sulfonyl)-6-(6-(trifluoromethyl)pyridin-2-yl)-3,4-dihydro-2H-benzo[b][1,4]oxazin-2-yl)methyl)oxetan-3-yl)acetamide] | < 0.5 µM | *** (The symbol “***” indicates a value in the range of greater than 150 to 200) | – | – | < 0.5 µM | ** (The symbol “**” indicates a value in the range of greater than 90 to 150)
CC(C)(C[C@@H]1CN(S(=O)(=O)c2cccc(C(F)(F)F)c2)c2cc(-c3cc(F)ccc3F)ccc2O1)C(=O)O [Compound 52, (R)-3-(6-(2,5-difluorophenyl)-4-((3-(trifluoromethyl)phenyl)sulfonyl)-3,4-dihydro-2H-benzo[b][1,4]oxazin-2-yl)-2,2-dimethylpropanoic Acid] | < 0.5 µM | ** (The symbol “**” indicates a value in the range of greater than 90 to 150) | – | – | 0.5 to 5 µM | * (The symbol “*” indicates a value in the range of 25 to 90)
O=C(O)[C@@H]1C[C@H]1[C@H]1CN(S(=O)(=O)c2cccc(C(F)(F)F)c2)c2cc(-c3cc(F)ccc3F)ccc2O1 [Compound 53, (1R,2R)-2-((S)-6-(2,5-difluorophenyl)-4-((3-(trifluoromethyl)phenyl)sulfonyl)-3,4-dihydro-2H-benzo[b][1,4]oxazin-2-yl)cyclopropane-1-carboxylic acid] | < 0.5 µM | ** (The symbol “**” indicates a value in the range of greater than 90 to 150) | – | – | < 0.5 µM | ** (The symbol “**” indicates a value in the range of greater than 90 to 150)
